In patent US20090181898A1, “ABUSE-RESISTANT A[…]” (SHIRE LLC, priority 2002, published 2009):
“And” between values parts separate entries of the source, which are not always exact repeats. Equal values may be shown once. Read-outs that look alike come from different tables or passages of the source. Marks after values point to notes of the source that are not given here.

Tests used:
[1] = Pharmacokinetics in male beagle dogs after oral or 30-min intravenous administration, 1 mg/kg (LC/MS/MS); type: in vivo; conditions: for AUC(0-t): read-out: AUC0-t of L-lysine-d-amphetamine; for AUC(0-inf): read-out: AUCinf of L-lysine-d-amphetamine; for Cmax: read-out: Cmax of L-lysine-d-amphetamine; for MRT: read-out: MRT of L-lysine-d-amphetamine; for half-life: read-out: t1/2 of L-lysine-d-amphetamine (converted)
Description: This was a non-randomized, two-treatment crossover study. All animals were maintained on their normal diet and were fasted overnight prior to each dose administration. L-lysine-d-amphetamine dose was based on the body weight measured on the morning of each dosing day. The actual dose delivered was based on syringe weight before and after dosing. Serial blood samples were obtained from each animal by direct venipuncture of a jugular vein using vacutainer tubes containing sodium heparin as the anticoagulant. Derived plasma samples were stored frozen until shipment to Quest Pharmaceutical Services, Inc. (Newark, Del.). Pharmacokinetic analysis of the plasma assay results was conducted by Calvert. Animals were treated as follows:
Oral: The test article was administered to each animal via a single oral gavage. On Day 1, animals received the oral dose by gavage using an esophageal tube attached to a syringe. Dosing tubes were flushed with approximately 20 mL tap water to ensure the required dosing solution was delivered.
Intravenous: On Day 8, animals received L-lysine-d-amphetamine as a single 30-minute intravenous infusion into a cephalic vein.
Blood: Serial blood samples (2 mL) were collected using venipuncture tubes containing sodium heparin. Blood samples were taken at 0, 0.25, 0.5, 1, 2, 4, 8, 12, 24, 48, and 72 hours post-oral dosing. […] Collected blood samples were chilled immediately.
Microsoft Excel (Version 6, Microsoft Corp., Redmond, Wash.) was used for calculation of mean plasma concentration and graphing of the plasma concentration-time data. Pharmacokinetic analysis (non-compartmental) was performed using the WinNonlin® software program (Version 4.1, Pharsight, Inc. Mountain View, Calif.). The maximum concentration (Cmax) and the time to Cmax(Tmax) were observed values. The area under the plasma concentration-time curve (AUC) was determined using linear-log trapezoidal rules. The apparent terminal rate constant (λz) was derived using linear least-squares regression with visual inspection of the data to determine the appropriate number of points (minimum of 3 data points) for calculating λz. The AUC0-inf was calculated as the sum of AUC0-t and Cpred/λz, where Cpred was the predicted concentration at the time of the last quantifiable concentration. The plasma clearance (CL/F) was determined as the ratio of Dose/AUC0-inf. The mean residence time (MRT) was calculated as the ratio of AUMC0-inf/AUC0-inf where AUMC0-inf was the area under the first moment curve from the time zero to infinity. The volume of distribution at steady state (Vss) was estimated as CL*MRT. Half-life was calculated as ln 2/λz. The oral bioavailability (F) was calculated as the ratio of AUC0-inf following oral dosing to AUC0-inf following intravenous dosing. Descriptive statistics (mean and standard deviation) of the pharmacokinetic parameters were calculated using Microsoft Excel.
Blood samples were collected up to 24 and 72 hours after the intravenous and oral doses, respectively.

[2] = biological target: T1, human recombinant dopamine transport binding sites (DAT) (Homo sapiens, UniProt Q01959); assay: Radioligand binding assay, dopamine transporter (NovaScreen)
T1 construct: NovaScreen, Hanover, Md; (contract laboratory that ran the assay)

[3] = biological target: T2, human recombinant norepinephrine transport binding sites (NET) (Homo sapiens, UniProt P23975); assay: Radioligand binding assay, norepinephrine transporter (NovaScreen)
T2 construct: NovaScreen, Hanover, Md; (contract laboratory that ran the assay)

[4] = Serum and brain tissue levels following oral administration (LC/MS/MS); conditions: rat, 5 mg/kg d-amphetamine base
[5] = Oral dose-escalation abuse liability study (pharmacokinetics) in adults with stimulant abuse history
[6] = Oral bioavailability of L-lysine-d-amphetamine dimesylate at various doses 1.5-60 mg/kg (ELISA); conditions: rat
Description: The mean plasma concentrations for 1.5, 3, and 6 mg/kg are shown in Table 6, Table 7, and Table 8, respectively.

[7] = 30 min iv, 1 mg/kg d-amphetamine base, individual dogs, 1 mg/kg
[8] = male, beagle, dog, plasma, iv, 1 mg/kg, 30 min iv, 1 mg/kg d-amphetamine base, individual dogs
[9] = male, beagle, dog, plasma, po, 1 mg/kg, oral, 1 mg/kg d-amphetamine base, individual dogs
[10] = oral, 1 mg/kg d-amphetamine base, individual dogs, 1 mg/kg

T2 sequence (P23975 whole entry): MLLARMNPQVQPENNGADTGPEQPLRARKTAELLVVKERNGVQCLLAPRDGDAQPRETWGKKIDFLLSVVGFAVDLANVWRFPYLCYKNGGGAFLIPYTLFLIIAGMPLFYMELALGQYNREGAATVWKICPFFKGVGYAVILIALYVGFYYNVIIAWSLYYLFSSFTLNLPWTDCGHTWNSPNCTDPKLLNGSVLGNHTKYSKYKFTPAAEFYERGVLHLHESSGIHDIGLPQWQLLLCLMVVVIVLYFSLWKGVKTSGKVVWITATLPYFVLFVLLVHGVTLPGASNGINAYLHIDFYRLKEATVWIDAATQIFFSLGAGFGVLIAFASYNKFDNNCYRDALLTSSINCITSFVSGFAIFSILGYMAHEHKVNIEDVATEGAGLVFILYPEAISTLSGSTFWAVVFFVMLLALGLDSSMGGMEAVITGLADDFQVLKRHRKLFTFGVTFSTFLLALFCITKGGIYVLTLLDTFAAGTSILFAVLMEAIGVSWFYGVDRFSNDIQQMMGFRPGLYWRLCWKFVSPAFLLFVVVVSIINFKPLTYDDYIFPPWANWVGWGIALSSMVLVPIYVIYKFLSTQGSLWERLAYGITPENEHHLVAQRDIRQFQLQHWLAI
T1 sequence (Q01959 whole entry): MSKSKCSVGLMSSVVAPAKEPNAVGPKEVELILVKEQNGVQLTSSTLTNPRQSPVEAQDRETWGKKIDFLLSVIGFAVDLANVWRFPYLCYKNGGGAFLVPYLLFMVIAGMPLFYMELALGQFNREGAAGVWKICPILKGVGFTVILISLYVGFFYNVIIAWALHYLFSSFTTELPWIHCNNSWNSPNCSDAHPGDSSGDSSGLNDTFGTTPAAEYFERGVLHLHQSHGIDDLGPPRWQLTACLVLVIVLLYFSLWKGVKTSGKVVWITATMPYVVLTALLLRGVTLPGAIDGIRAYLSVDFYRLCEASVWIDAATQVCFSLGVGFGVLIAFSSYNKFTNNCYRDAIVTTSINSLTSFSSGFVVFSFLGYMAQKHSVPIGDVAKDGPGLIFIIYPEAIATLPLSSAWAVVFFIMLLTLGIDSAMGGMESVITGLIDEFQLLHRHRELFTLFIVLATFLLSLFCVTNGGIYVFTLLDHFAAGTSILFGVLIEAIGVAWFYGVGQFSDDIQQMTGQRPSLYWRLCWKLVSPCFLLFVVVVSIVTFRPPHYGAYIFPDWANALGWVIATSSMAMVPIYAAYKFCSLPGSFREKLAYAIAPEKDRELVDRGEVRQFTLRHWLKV

Compound: CC(Cc1ccccc1)NC(=O)C(N)CCCCN [L-lysine-d-amphetamine, 2,6-diaminohexanoic acid-(1-methyl-2-phenylethyl)-amide]
- AUC0-t of L-lysine-d-amphetamine [1, 7]: 1072.3 ng·h/mL and 914.1 ng·h/mL
- Cmax of L-lysine-d-amphetamine [1, 7]: 1826.4 ng/mL and 1654.2 ng/mL
- MRT of L-lysine-d-amphetamine [1, 7]: 19.2 min and 18 min
- Vss of L-lysine-d-amphetamine [1, 7]: 0.6034 L/kg and 0.656 L/kg
- t1/2 of L-lysine-d-amphetamine [1, 7]: 63 min
- Time by which L-lysine-d-amphetamine fell below the quantifiable limit (1 ng/mL) ([1]; IV infusion, post-dose): approximately 8 hours
- AUC(0-t) [1, 8]: 898 ng·h/mL
- AUC(0-inf) [1, 8]: 900 ng·h/mL
- clearance ([1]; male, beagle, dog, plasma, iv, 1 mg/kg, 30 min iv, 1 mg/kg d-amphetamine base, individual dogs, read-out: CL of L-lysine-d-amphetamine (converted)): 37 mL/min/kg
- Cmax [1, 8]: 1470 ng/mL
- MRT [1, 8]: 21.6 min
- Vd ([1]; male, beagle, dog, plasma, iv, 1 mg/kg, 30 min iv, 1 mg/kg d-amphetamine base, individual dogs, read-out: Vss of L-lysine-d-amphetamine): 0.807 L/kg
- half-life [1, 8]: 43.2 min
- AUC(0-t) ([1]; male, beagle, dog, plasma, iv, 1 mg/kg, 30 min iv, 1 mg/kg d-amphetamine base, mean of 3 dogs): 962 ng·h/mL
- clearance ([1]; male, beagle, dog, plasma, iv, 1 mg/kg, 30 min iv, 1 mg/kg d-amphetamine base, mean of 3 dogs, read-out: CL of L-lysine-d-amphetamine (converted)): 34.8 mL/min/kg
- clearance ([1]; male, beagle, dog, plasma, iv, 1 mg/kg, IV 30-min infusion, 1 mg/kg, read-out: Mean clearance of L-lysine-d-amphetamine): 34.8 mL/min/kg
- AUC(0-t) [1, 9]: 368 ng·h/mL
- AUC(0-inf) [1, 9]: 369 ng·h/mL
- CL/F ([1]; male, beagle, dog, plasma, po, 1 mg/kg, oral, 1 mg/kg d-amphetamine base, individual dogs, read-out: CL/F of L-lysine-d-amphetamine (converted)): 90.4 mL/min/kg
- Cmax [1, 9]: 407 ng/mL
- bioavailability ([1]; male, beagle, dog, plasma, po, 1 mg/kg, oral, 1 mg/kg d-amphetamine base, individual dogs, read-out: F (bioavailability) of L-lysine-d-amphetamine): 34.3%
- MRT [1, 9]: 44.4 min
- half-life [1, 9]: 28.8 min
- AUC(0-t) ([1]; male, beagle, dog, plasma, po, 1 mg/kg, oral, 1 mg/kg d-amphetamine base, mean of 3 dogs): 318 ng·h/mL
- AUC0-t of L-lysine-d-amphetamine [1, 10]: 310.8 ng·h/mL and 275.3 ng·h/mL
- Cmax of L-lysine-d-amphetamine [1, 10]: 227.4 ng/mL and 350.2 ng/mL
- F (bioavailability) of L-lysine-d-amphetamine [1, 10]: 34.0% and 30.8%
- MRT of L-lysine-d-amphetamine [1, 10]: 61.8 min and 40.8 min
- t1/2 of L-lysine-d-amphetamine [1, 10]: 27 min and 14.4 min
- inhibition at 10 µM ([2]; 10^−5 mol/L): -0.71%
- inhibition at 0.1 µM ([2]; 10^−7 mol/L): 11.5%
- inhibition at 0.001 µM ([2]; 10^−9 mol/L): -10.5%
- Specific binding to dopamine transport binding sites ([2]; 10^−9 to 10^−5 M): did not bind
- Activity ([2]; DA Transporter, radioligand [3H]-WIN35428, 10^−9 to 10^−5 M): No (No activity is defined as producing between −20% and 20% inhibition of radioligand binding (Novascreen).)
- inhibition at 10 µM ([3]; 10^−5 mol/L): 13.9%
- inhibition at 0.1 µM ([3]; 10^−7 mol/L): -11.8%
- inhibition at 0.001 µM ([3]; 10^−9 mol/L): 8.15%
- Specific binding to norepinephrine transport binding sites ([3]; 10^−9 to 10^−5 M): did not bind
- Activity ([3]; NE Transporter, radioligand [3H]-Nisoxetine, 10^−9 to 10^−5 M): No (No activity is defined as producing between −20% and 20% inhibition of radioligand binding (Novascreen).)
- Intact conjugate in brain tissue [4]: not detected
- Intact conjugate in serum [4]: present in appreciable amounts
- Adverse reactions ([5]; adults with stimulant abuse, oral, 30-150 mg): mild in severity
- half-life ([5]; human, in vivo, po): 26.4 to 45.6 min

Compound: d-amphetamine
- AUC of d-amphetamine ([6]; 3 mg/kg): 587 ng·h/mL
- Cmax of d-amphetamine ([6]; 3 mg/kg): 141 ng/mL
- Tmax of d-amphetamine ([6]; 3 mg/kg): 60 min
- Tmax, Percent (of Amp) ([6]; 3 mg/kg): 100%
- Mean plasma amphetamine concentration ([6]; 3 mg/kg, 0 h): 0 ng/mL
- Mean plasma amphetamine concentration ([6]; 3 mg/kg, 0.5 h): 107 ng/mL
- Mean plasma amphetamine concentration ([6]; 3 mg/kg, 1 h): 121 ng/mL
- Mean plasma amphetamine concentration ([6]; 3 mg/kg, 3 h): 91 ng/mL
- Mean plasma amphetamine concentration ([6]; 3 mg/kg, 5 h): 62 ng/mL
- Mean plasma amphetamine concentration ([6]; 3 mg/kg, 8 h): 19 ng/mL
- AUC of d-amphetamine ([6]; 6 mg/kg): 807 ng·h/mL
- Cmax of d-amphetamine ([6]; 6 mg/kg): 205 ng/mL
- Tmax of d-amphetamine ([6]; 6 mg/kg): 33.8 min
- Tmax, Percent (of Amp) ([6]; 6 mg/kg): 100%
- Mean plasma amphetamine concentration ([6]; 6 mg/kg, 0 h): 0 ng/mL
- Mean plasma amphetamine concentration ([6]; 6 mg/kg, 0.5 h): 186 ng/mL
- Mean plasma amphetamine concentration ([6]; 6 mg/kg, 1 h): 167 ng/mL
- Mean plasma amphetamine concentration ([6]; 6 mg/kg, 3 h): 111 ng/mL
- Mean plasma amphetamine concentration ([6]; 6 mg/kg, 5 h): 78 ng/mL
- Mean plasma amphetamine concentration ([6]; 6 mg/kg, 8 h): 35 ng/mL
- AUC of d-amphetamine ([6]; 12 mg/kg): 2,738 ng · h/ml
- Cmax of d-amphetamine ([6]; 12 mg/kg): 621 ng/mL
- Tmax of d-amphetamine ([6]; 12 mg/kg): 56.3 min
- Tmax, Percent (of Amp) ([6]; 12 mg/kg): 100%
- Mean plasma amphetamine concentration ([6]; 12 mg/kg, 0.5 h): 621 ng/mL
- Mean plasma amphetamine concentration ([6]; 12 mg/kg, 1 h): 512 ng/mL
- Mean plasma amphetamine concentration ([6]; 12 mg/kg, 3 h): 376 ng/mL
- Mean plasma amphetamine concentration ([6]; 12 mg/kg, 5 h): 314 ng/mL
- Mean plasma amphetamine concentration ([6]; 12 mg/kg, 8 h): 103 ng/mL
- Cmax of d-amphetamine ([6]; 30 mg/kg): 3,726 ng/ml
- AUC of d-amphetamine (0-5 h) ([6]; 30 mg/kg, 0-5 h): 12,623* ng · h/ml
- Mean plasma amphetamine concentration ([6]; 30 mg/kg, 0.5 h): 2,583 ng/ml
- Mean plasma amphetamine concentration ([6]; 30 mg/kg, 1 h): 3,162 ng/ml
- Mean plasma amphetamine concentration ([6]; 30 mg/kg, 3 h): 2,620 ng/ml
- Mean plasma amphetamine concentration ([6]; 30 mg/kg, 5 h): 1,535 ng/ml
- Mean plasma amphetamine concentration ([6]; 30 mg/kg, 8 h): 164 ng/mL
- Cmax of d-amphetamine ([6]; 60 mg/kg): 4,101 ng/ml
- AUC of d-amphetamine (0-[…]) ([6]; 60 mg/kg, 0-[…]): 5,081** ng · h/ml
- Mean plasma amphetamine concentration ([6]; 60 mg/kg, 0.5 h): 3,566 ng/ml
- Mean plasma amphetamine concentration ([6]; 60 mg/kg, 1 h): 3,556 ng/ml
- AUC of d-amphetamine ([6]; […]): 481 ng·h/mL
- Cmax of d-amphetamine ([6]; […]): 133 ng/mL
- Tmax of d-amphetamine ([6]; […]): 56.3 min
- Tmax, Percent (of Amp) ([6]; […]): 100%
- Mean plasma amphetamine concentration ([6]; […], 0 h): 0 ng/mL
- Mean plasma amphetamine concentration ([6]; […], 0.5 h): 126 ng/mL
- Mean plasma amphetamine concentration ([6]; […], 1 h): 101 ng/mL
- Mean plasma amphetamine concentration ([6]; […], 3 h): 66 ng/mL
- Mean plasma amphetamine concentration ([6]; […], 5 h): 40 ng/mL
- Mean plasma amphetamine concentration ([6]; […], 8 h): 17 ng/mL
